Laboratory results reported in patent US6313179A, “Treatment of hyperproliferative skin disorders with C18 to C20 aliphatic alcohols” (Avanir Pharmaceuticals, priority 1998, dated 2001).
Several values for one entry are separate records, joined by “and”; a condition that tells them apart may be missing. Equal entries are not always repeated. Entries after “also recorded” stand apart in the source; their conditions may differ. Where two headings read alike, the source gives them in different places.

Experiments:
Human keloid fibroblasts [1] = experiment: Antiproliferative activity of n-docosanol in keloid cells (Example 1, viable cell count); assay type: cell-based; details: 15 mM; for inhibition of keloid cell growth in vitro (in words): cultured keloid / hypertrophic fibroblasts; for activity at 15000 µM / cells/well: Table 1; for activity at 15000 µM: compared to cells incubated with no addition, read-out: % control
Procedure: (§1) Human keloid fibroblasts were obtained from the American Type Culture Collection (Rockville, Md.) (CRL 1762). n-Docosanol (300 mM) was suspended in the nonionic surfactant Pluronic F-68 (12 mM) as described previously (Katz et al., Proc. Natl. Acad. Sci. U.S.A., 88:10825-10829, 1991, hereby incorporated by reference). A vehicle control was prepared using the same procedure except n-docosanol was omitted. Keloid cells (2.7×10^4per well) were added to 16 mm wells containing DMEM supplemented with 10% fetal calf serum (FCS), sodium pyruvate, L-glutamine and penicillin/streptomycin. n-Docosanol (15 mM) or the corresponding Pluronic F-68 control (0.6 mM) was added (total volume=2.0 ml). Cells were harvested after incubation for 72 and 168 hours at 37° C. in a humidified 10% CO2 incubator. The number of viable cells was determined by trypan blue staining.

keloid cells = experiment: Comparison of n-docosanol effect between keloid and normal cells: keloid cells (Example 2); assay type: cell-based, Human; details: 15 mM; for inhibition at 15000 µM / activity at 15000 µM: Homo sapiens; for inhibition at 15000 µM: read-out: inhibition of number of keloid cells per well; for activity at 15000 µM / cells/well: Table 2; for activity at 15000 µM: compared to cells incubated with no addition, read-out: % control
Procedure: as §1
(§2) Human fetal lung cells (HFL; ATCC CCL 153) and keloid cells (5×10^4 cells/well) were separately added to 16 mm wells and treated as described in Example 1. The results are shown in Tables 2 (keloid cells) and 3 (human fetal lung cells).

[2] = test system: Human fetal lung cells (HFL; ATCC CCL 153); experiment: Comparison of n-docosanol effect between keloid and normal cells: human fetal lung cells (Example 2); assay type: cell-based; details: 15 mM; for activity at 15000 µM: Homo sapiens, compared to cells incubated with no addition, read-out: % control; for activity at 15000 µM / cells/well: Table 3
Procedure: as §1, §2

Human keloid fibroblasts [3] = experiment: Proliferation study, keloid cells (Example 3); assay type: cell-based; details: 3 mM
Procedure: (§3) Human keloid fibroblasts, normal control skin fibroblasts and Vero cells were obtained from ATCC. n-Docosanol (30 mM) was suspended in Pluronic F-68 (1.2 mM) as described previously (Katz et al., ibid). A vehicle control was prepared using the same procedure except for the omission of n-docosanol. Radiolabeled n-[1-^14 C] docosanol suspension was prepared as described by Katz et al. (ibid.). Cells were resuspended in 1.2×10^6 cells/ml in DMEM supplemented with 10% fetal calf serum, sodium pyruvate, L-glutamine and penicillin-streptomycin. Cell suspension (0.5 ml) was added to each 35 mm well containing 1.3 ml media, followed by addition of 0.2 ml radiolabeled n-docosanol suspension (final n-docosanol concentration=3 mM). After 24 hours at 37° C. in humidified 10% CO2, the suspension was removed, wells were washed extensively with saline and cells were solubilized for scintillation counting by incubation with 0.5 ml trypsin for 15 min at 37° C. Solubilized cells were counted in a Beckman LS6000 scintillation counter. Samples were corrected for nonspecific binding to plates by subtracting values obtained in control wells lacking cells. To determine cell number, duplicate plates were treated with non-radiolabeled n-docosanol or control suspension at the same concentration or were left untreated. The number of viable cells was determined by trypan blue staining.

[4] = test system: normal skin fibroblast (ATCC CRL 1900) cells; experiment: Proliferation study, normal skin fibroblasts (Example 3); assay type: cell-based
Procedure: (§4) The following experiment examined the effect of n-docosanol on cell proliferation and quantitation of n-[1-^14 C]docosanol binding to keloid, Vero (normal African green monkey kidney; ATCC CCL 81) and normal skin fibroblast (ATCC CRL 1900) cells.
as §3

[5] = test system: Vero (normal African green monkey kidney; ATCC CCL 81) cells; experiment: Proliferation study, Vero cells (Example 3); assay type: cell-based; details: 3 mM
Procedure: as §4, §3

Human keloid fibroblasts [6] = experiment: Radiolabeled n-docosanol binding to keloid cells (Example 3); assay type: cell-based; details: 24 hours
Procedure: as §3

[7] = test system: normal skin fibroblast (ATCC CRL 1900) cells; experiment: Radiolabeled n-docosanol binding to normal skin fibroblasts (Example 3); assay type: cell-based; details: Table 4, n-[1-14C]docosanol 3 mM, 24 hours
Procedure: as §4
as §3, with “Samples were corrected for nonspecific binding to plates by subtracting values obtained in control wells lacking cells. To determine cell number, duplicate plates were treated with non-radiolabeled n-docosanol or control suspension at the same concentration or were left untreated.” left out

[8] = test system: Vero (normal African green monkey kidney; ATCC CCL 81) cells; experiment: Radiolabeled n-docosanol binding to Vero cells (Example 3); assay type: cell-based; details: Table 4, n-[1-14C]docosanol 3 mM, 24 hours
Procedure: as §4
as §3, with “Samples were corrected for nonspecific binding to plates by subtracting values obtained in control wells lacking cells. To determine cell number, duplicate plates were treated with non-radiolabeled n-docosanol or control suspension at the same concentration or were left untreated.” left out

[9] = test system: cutaneous Kaposi's sarcoma; experiment: Treatment of Kaposi's sarcoma with 10% n-docosanol cream (Example 6); assay type: in vivo, Human; details: 10% cream
Procedure: HIV-positive male patients presenting with treatment-resistant cutaneous Kaposi's sarcoma were treated for 28 days, 5 times daily with the 10% n-docosanol cream formulation described in Example 4. Response to treatment was evaluated according to lesion dimensions, color of the lesion and the type of lesion (hard, soft or nodule). The data were recorded on intermittent days throughout the 28 days of the study and values were compared to baseline observations made on Day 1. Three target lesions were evaluated in each patient. Thus far, five patients have completed the study.

[10] = test system: respiratory syncytial virus; details: suspended in a surfactant; cell culture assays; cited from earlier work
[11] = concentrations up to 300 mM; cited from earlier work
[12] = one patient, Day 15 and thereafter

In the case of `CCCCCCCCCCCCCCCCCCCCCCO` [n-docosanol], the “inhibition of keloid cell growth in vitro (in words)” value (Human keloid fibroblasts [1]) was “favored by low cell densities and longer incubation times and is concentration-dependent; also recorded: dramatic inhibition of keloid cell growth”, the “inhibition of keloid cell growth in vitro (in words)” value (Human keloid fibroblasts [1]; listed as n-Docosanol) was “exhibits antiproliferative activity against cultured hypertrophic fibroblasts” and the inhibition at 15000 µM (Human keloid fibroblasts [1]; Homo sapiens, Fibroblast, 168 hours, compared to no addition, read-out: inhibition of cell growth) was 76%. For the same molecule, the activity at 15000 µM (Human keloid fibroblasts [1]; Homo sapiens, Fibroblast, 72 hours) was 103%, the activity at 15000 µM (Human keloid fibroblasts [1]; Homo sapiens, Fibroblast, 168 hours) was 24% and the cells/well (Human keloid fibroblasts [1]; 72 hours) was 3.3 × 10^4 cells/well. The cells/well (Human keloid fibroblasts [1]; 168 hours) was 1.0 × 10^4 cells/well, the inhibition at 15000 µM (keloid cells; 72 hours) was 36% and the inhibition at 15000 µM (keloid cells; 168 hours) was 85%. The activity at 15000 µM (keloid cells; 72 hours) was 64%, the activity at 15000 µM (keloid cells; 168 hours) was 15% and the cells/well (keloid cells; 72 hours) was 1.1 × 10^4 cells/well. For the same molecule, the cells/well (keloid cells; 168 hours) was 0.4 × 10^4 cells/well, the “number of human fetal lung cells (in words)” value ([2]; at both time intervals (72 and 168 hours)) was “significantly increased” and the activity at 15000 µM ([2]; 72 hours) was 116%. The activity at 15000 µM ([2]; 168 hours) was 250%, the cells/well ([2]; 72 hours) was 5.8 × 10^4 cells/well and the cells/well ([2]; 168 hours) was 20 × 10^4 cells/well. The inhibition at 3000 µM (Human keloid fibroblasts [3]; Homo sapiens, Fibroblast, 24 h, one day incubation, read-out: reduction of number of keloid cells) was 57%, the activity at 3000 µM (Human keloid fibroblasts [3]; Homo sapiens, Fibroblast, Table 4, Keloid, 24 hours, compared to cells incubated with no addition, read-out: % ctrl) was 43% and the No. cells (Human keloid fibroblasts [3]; Table 4, Keloid, 24 hours) was 1.6 × 10^5 cells. The “number of CRL-1900 normal skin fibroblasts (in words)” value ([4]; 3 mM, one day incubation) was “not decreased”, the activity at 3000 µM ([4]; Skin fibroblast, Table 4, CRL-1900, 3 mM, 24 hours, compared to cells incubated with no addition, read-out: % ctrl) was 98% and the No. cells ([4]; Table 4, CRL-1900, 3 mM, 24 hours) was 5.4 × 10^5 cells. For the same molecule, the “growth of normal cells (in words)” value ([4]; under the tissue culture conditions used, general statement on normal cells) was “unaffected”, the “number of Vero cells (in words)” value ([5]; one day incubation) was “not decreased” and the activity at 3000 µM ([5]; Chlorocebus sabaeus, Table 4, Vero, 24 hours, compared to cells incubated with no addition, read-out: % ctrl) was 151%. The “No. cells” value ([5]; Table 4, Vero, 24 hours) was 5.9 × 10^5 cells, the “amount of radiolabeled n-docosanol bound to keloid as compared to CRL 1900 cells” value (Human keloid fibroblasts [6]; 3 mM, vs CRL 1900) was “About three” and the “Binding per 10^6 cells” value (Human keloid fibroblasts [6]; Table 4, Keloid, n-[1-14C]docosanol 3 mM) was 45.5 μg. For the same molecule, the “Binding per 10^6 cells” value [7] was 15.6 μg, the “Binding per 10^6 cells” value [8] was 8.9 μg and the “patients with a response (reduction in the size of the lesions)” value ([9]; Day 28 vs Day 1) was “three out of five”. The “lesions with reduction in size, two patients” value ([9]; Day 28 vs Day 1, each of two patients) was 3 out of 3, the “lesions with reduction in size, one patient” value ([9]; Day 28 vs Day 1, one patient) was 2 out of 3 and the “color changes in lesions” value ([9]; all five patients, all lesions) was “color changes in all lesions to a lighter color”. For the same molecule, the “increase in lesion size” value ([9]; any of the 15 lesions studied) was “not observed”, the disappearance of lesion ([9]; by Day 3, one lesion) was “One lesion completely disappeared by Day 3” and the clinically observed swelling [9, 12] was “decrease in the clinically observed swelling”. For the same molecule, the pain of lesions [9, 12] was “less painful”, the “Day 28 Color” value ([9]; Table 5, 5 times daily, 28 days, per patient and lesion) was “pale and gone and pale pink and very pale and pink and tan and lighter” and the “percent reduction in lesion size” value ([9]; Table 5, Day 28 vs Day 1, 5 times daily, per patient and lesion) was 75% and gone and 74% and 19% and 20% and 0% and 28% and 10%. The antiviral activity [10] was “potent antiviral activity” and the cytotoxicity [11] was “not cytotoxic in concentrations up to 300 mM”.
